The text below walks through data of PubChem BioAssay AID1996.

Each structure is given as a SMILES string. Converted amounts (≈) assume the structure as drawn.

For this data set the following is noted: buffer; pH 7.4; 200.0 µM.
For orientation: kinetic solubility means solubility judged after dilution from a stock solution rather than from solid. `CCCCC(=O)Nc1cnc(NC(=O)c2ccco2)cc1C` had a solubility (kinetic) above 45.2 µg/mL.

`CCNC(=O)COC(=O)/C=C/c1cccc(F)c1` showed a solubility (kinetic) above 37.7 µg/mL.

In turn, `O=C(COC(=O)c1ccccc1OCc1ccc(Cl)cc1)NCC1CCCO1` (configuration not stated) yielded a solubility (kinetic) above 60.6 µg/mL.

Molecule `O=c1c2c([nH]c3ccccc13)CCC2` yielded a solubility (kinetic) above 27.8 µg/mL.

`O=C(C1=C(O)C(=O)N(CCOCCO)C1c1ccccn1)c1cccs1` (configuration not stated) gave a kinetic solubility above 56.2 µg/mL.

Regarding `Cc1ccc(NC(=O)CCc2ccc(C)o2)cc1`, the kinetic solubility is 21.1 µg/mL (≈ 86.7 µM).

Consider `Cc1ccc(NC(=O)C(=O)NCCc2c[nH]c3ccccc23)c(C)c1`, for which the kinetic solubility came to 0.4 µg/mL (≈ 1.19 µM).

Regarding `O=C(Nc1ccc(N2CCCC2)cc1)c1cc2ccccc2o1`, the solubility (kinetic) came out at 0.4 µg/mL (≈ 1.31 µM).

`Cc1cccc(C(=O)O/N=C(\N)c2ccccn2)c1` gave a kinetic solubility above 38.3 µg/mL.

As for `CC(=O)Nc1ccccc1OCC(=O)NCCC1=CCCCC1`, the kinetic solubility is above 47.5 µg/mL.

As to `CSc1ncccc1C(=O)OCc1c(F)cccc1Cl`, the kinetic solubility is 1.1 µg/mL (≈ 3.53 µM).

In the case of `O=C(Nc1ccccc1)c1ccccc1NC(=O)c1ccccc1C(=O)O`, the solubility (kinetic) is 52.6 µg/mL (≈ 146 µM).

Molecule `Cc1cc(S(=O)(=O)NCc2ccco2)c(C)cc1Cl` returned a solubility (kinetic) above 45 µg/mL.

As to `O=C(NCC1CCCO1)c1cccc(Oc2ccccc2)c1` (configuration not stated), the solubility (kinetic) was found to be 40.1 µg/mL (≈ 135 µM).

Molecule `CC(=O)N1CCc2ccccc2C1CC(=O)O` (configuration not stated) came in with a solubility (kinetic) of 32.7 µg/mL (≈ 140 µM).

As to `Cl.O=C(NCCN1CCCC1)C(c1ccccc1)c1ccccc1`, the solubility (kinetic) was determined as 48.9 µg/mL.

Molecule `C#CCOc1ccc(/C=C2/C(=O)ON=C2C)cc1Br` registered a solubility (kinetic) of 42.7 µg/mL (≈ 133 µM).

Molecule `Cc1cccc2nc3c(nc12)-c1ccccc1C3=O` registered a kinetic solubility of 0.5 µg/mL (≈ 2.03 µM).

`CCOc1ccc(CNc2ncc(-c3ccccc3)n2C)cc1`: the kinetic solubility was 26 µg/mL (≈ 84.6 µM).

Molecule `COc1c(C)cc(S(=O)(=O)N2CCOCC2)c(C)c1C` gave a kinetic solubility above 44.9 µg/mL.

`CCN1C(=O)CC(c2ccc(OC(C)C)cc2)C1=O` (configuration not stated): the solubility (kinetic) is above 39.2 µg/mL.

As to `CCCOc1ncnc2c1[nH]c1ccc(OC)cc12`, the kinetic solubility came to 0.5 µg/mL (≈ 1.94 µM).

In turn, `O=C(OCC(=O)N1CCOCC1)c1cc(=O)[nH]c2ccccc12` had a solubility (kinetic) above 47.4 µg/mL.

As to `CCOC1=C/C(=C/c2c(N)n3oc(C)cc3nc2=O)C=CC1=O`, the solubility (kinetic) amounted to 11.9 µg/mL (≈ 38 µM).

Take `COc1ccc2nc(NC(=O)c3ccc([N+](=O)[O-])o3)sc2c1`: the kinetic solubility was 2 µg/mL (≈ 6.26 µM). This solubility kinetic is about 6-fold lower than that of the molecule before.

The molecule `NC(=S)N/N=C/c1c[nH]c2ccccc12` showed a solubility (kinetic) above 32.7 µg/mL.

As for `O=C(NC1CCOc2ccccc21)c1ccccn1` (configuration not stated), the solubility (kinetic) was found to be 36.1 µg/mL (≈ 142 µM).

For the molecule `CC1CCCCN1C(=O)CCS(=O)(=O)Cc1ccccc1` (configuration not stated), the kinetic solubility came to 35 µg/mL (≈ 113 µM).

`Clc1ccccc1N=C1SCCS1` returned a kinetic solubility of 18.2 µg/mL (≈ 79.2 µM).

Consider `CS(=O)(=O)Nc1cccc(-c2cn3c(n2)SCC3)c1`, for which the solubility (kinetic) came out at 40 µg/mL (≈ 135 µM).

Regarding `COc1ccccc1OCCn1cc(C=O)c2ccccc21`, the solubility (kinetic) came to 7.8 µg/mL (≈ 26.4 µM). This solubility kinetic is about 5.1-fold lower than that of the molecule before.

For `O=[N+]([O-])c1ccc(NCCc2ccccc2)c(Br)c1`, the kinetic solubility is 0.7 µg/mL (≈ 2.18 µM).

Molecule `Cc1ccc(SCC(=O)NC(=O)c2ccccc2Br)c(C)c1` came in with a solubility (kinetic) above 56.7 µg/mL.

As to `C=C1C(C(=O)Nc2ccc(OC)cc2)C1C(=O)Nc1ccc(OC)cc1` (configuration not stated), the kinetic solubility was 0.6 µg/mL (≈ 1.7 µM).

`COc1ccc2c(c1OC)C(=O)N(c1cccc(/C=C/C(=O)O)c1)C2` displayed a solubility (kinetic) above 50.9 µg/mL.

`CCOc1ccc(S(=O)(=O)N2CN(c3cccc(C(C)=O)c3)c3nc4ccccc4nc32)cc1` gave a solubility (kinetic) of 3.1 µg/mL (≈ 6.53 µM).

The molecule `O=C(COC(=O)Cc1ccc(S(=O)(=O)N2CCOCC2)s1)Nc1ccc(OC(F)F)cc1` showed a kinetic solubility of 63.7 µg/mL (≈ 130 µM).

In turn, `CC(=O)Nc1ccc(S(=O)(=O)NCCC(=O)Nc2cc(C)ccn2)cc1` yielded a solubility (kinetic) above 56.5 µg/mL.

In the case of `COC(=O)[C@H](CCSC)NC(=O)Nc1cc(OC)cc(OC)c1`, the kinetic solubility was above 51.4 µg/mL.

The molecule `N#Cc1sc(NCc2cccc(Cl)c2)nc1Cl` displayed a kinetic solubility of 2.4 µg/mL (≈ 8.45 µM).

`Clc1ccc2c(c1)C(N1CCNCC1)=Nc1ccccc1O2`: the solubility (kinetic) turned out to be 34.4 µg/mL (≈ 110 µM).

The molecule `CCCOc1ccc(NC(=O)CC2Nc3ccccc3NC2=O)cc1` (configuration not stated) yielded a solubility (kinetic) of 2.7 µg/mL (≈ 7.96 µM).

The molecule `O=C(NC(=S)Nc1ccccn1)c1cccc([N+](=O)[O-])c1` yielded a solubility (kinetic) of 6.2 µg/mL (≈ 20.5 µM).

In turn, `CCC(C)c1ccc(NC(=O)c2[nH]c(C)c(C(C)=O)c2C)cc1` (configuration not stated) had a kinetic solubility of 0.5 µg/mL (≈ 1.6 µM). Against the preceding molecule, the solubility kinetic is about 12-fold lower.

The molecule `CC1CCc2cccc3c(O)cc(=O)n1c23` (configuration not stated) registered a kinetic solubility above 32.3 µg/mL.

In turn, `O=C(NCc1cccnc1)c1ccccc1NS(=O)(=O)c1ccc(Br)cc1` gave a solubility (kinetic) above 66.9 µg/mL.

Molecule `Cc1ccc(C(=O)N2CC=C(c3ccccc3)CC2)s1` returned a kinetic solubility of 3.1 µg/mL (≈ 10.9 µM).

`CO[C@H]1O[C@H](C)[C@@H](O)C[C@H]1NC(=O)OCc1ccccc1` registered a solubility (kinetic) above 44.3 µg/mL.

In the case of `CC(C)(C)OC(=O)N1CCN(c2ccc([N+](=O)[O-])cc2)CC1`, the solubility (kinetic) turned out to be 1.9 µg/mL (≈ 6.18 µM).

The molecule `O=C(COC(=O)c1ccc(O)cc1)Nc1ccc(S(=O)(=O)N2CCOCC2)cc1` came in with a solubility (kinetic) of 52.4 µg/mL (≈ 125 µM). Compared with the last molecule, the solubility kinetic is about 28-fold higher.

For `CCN1CCC(O)(C#Cc2ccccc2)CC1`, the kinetic solubility is 33.5 µg/mL (≈ 146 µM).

For `COc1ccc(NC(=S)NC(=O)C2CCCCC2)cc1`, the solubility (kinetic) is below 0.3 µg/mL.
